# Measured values as given in ChEMBL document CHEMBL5537128, “Discovery of LWY713 as a potent and selective FLT3 PROTAC degrader with in vivo activity against acute myeloid leukemia” (Eur J Med Chem, 2024).
# The source made the active and inactive calls. The calls are words filed in the database; no cut-off is given here.
# How the values were obtained:
# [1] = molecular target: T1, Protein cereblon/Receptor-type tyrosine-protein kinase FLT3 (Homo sapiens, UniProt P36888+Q96SW2); assay: PROTAC activity at CRBN/FLT3 in human MV4-11 cells harboring FLT3-ITD mutation assessed as induction of FLT3 degradation at 10 nM incubated for 24 hrs by immunoblotting analysis relative to control; format: cell-based
# Target sequence in this assay (P36888 27-993 limits assumed): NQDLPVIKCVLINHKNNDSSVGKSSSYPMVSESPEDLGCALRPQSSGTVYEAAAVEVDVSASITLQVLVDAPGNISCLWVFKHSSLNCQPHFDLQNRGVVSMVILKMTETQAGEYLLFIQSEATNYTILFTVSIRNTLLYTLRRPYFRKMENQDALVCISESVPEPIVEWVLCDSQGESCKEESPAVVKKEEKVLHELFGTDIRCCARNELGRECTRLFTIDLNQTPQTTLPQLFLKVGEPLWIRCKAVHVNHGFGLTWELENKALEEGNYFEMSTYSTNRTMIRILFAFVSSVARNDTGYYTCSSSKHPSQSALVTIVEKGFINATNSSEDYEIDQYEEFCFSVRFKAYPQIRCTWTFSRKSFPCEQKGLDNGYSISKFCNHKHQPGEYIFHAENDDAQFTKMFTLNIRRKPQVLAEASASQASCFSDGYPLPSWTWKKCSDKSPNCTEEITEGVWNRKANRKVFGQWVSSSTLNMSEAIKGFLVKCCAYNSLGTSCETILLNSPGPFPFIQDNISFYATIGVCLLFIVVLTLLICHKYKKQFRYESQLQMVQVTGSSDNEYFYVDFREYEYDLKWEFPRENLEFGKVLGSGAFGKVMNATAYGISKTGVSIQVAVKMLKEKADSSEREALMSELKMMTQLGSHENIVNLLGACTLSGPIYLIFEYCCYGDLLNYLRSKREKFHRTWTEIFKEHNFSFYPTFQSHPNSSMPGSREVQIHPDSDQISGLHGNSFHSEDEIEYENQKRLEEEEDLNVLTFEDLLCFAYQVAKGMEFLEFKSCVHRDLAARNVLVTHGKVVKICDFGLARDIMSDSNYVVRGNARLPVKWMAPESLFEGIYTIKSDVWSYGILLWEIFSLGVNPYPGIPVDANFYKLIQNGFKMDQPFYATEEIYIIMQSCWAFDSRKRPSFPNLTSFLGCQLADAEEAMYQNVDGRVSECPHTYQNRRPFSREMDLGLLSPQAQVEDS
# Target sequence in this assay (Q96SW2 whole entry partner): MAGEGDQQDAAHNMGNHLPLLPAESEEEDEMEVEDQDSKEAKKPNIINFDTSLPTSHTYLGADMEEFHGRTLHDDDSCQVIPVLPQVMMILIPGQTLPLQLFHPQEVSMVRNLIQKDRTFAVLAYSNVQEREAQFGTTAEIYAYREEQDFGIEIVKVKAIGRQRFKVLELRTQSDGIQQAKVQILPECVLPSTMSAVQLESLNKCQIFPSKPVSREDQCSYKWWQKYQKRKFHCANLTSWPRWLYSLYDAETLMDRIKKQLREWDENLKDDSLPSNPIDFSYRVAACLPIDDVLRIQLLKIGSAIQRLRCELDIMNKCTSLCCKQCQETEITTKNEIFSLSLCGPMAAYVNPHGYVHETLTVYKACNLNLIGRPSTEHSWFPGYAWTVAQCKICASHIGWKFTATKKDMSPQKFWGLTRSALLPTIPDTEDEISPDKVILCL
# MV4-11 [2] = assay: Antiproliferative activity against human MV4-11 cells assessed as inhibition of cell proliferation incubated for 72 hrs by CCK8 assay; format: functional, cell-based; details: MV4-11, 72 h
# [3] = molecular target: T1, Protein cereblon/Receptor-type tyrosine-protein kinase FLT3; assay: PROTAC activity at CRBN/FLT3 in human MV4-11 cells harboring FLT3-ITD mutation assessed as induction of FLT3 degradation incubated for 24 hrs by immunoblotting analysis; format: cell-based
# [4] = molecular target: T1, Protein cereblon/Receptor-type tyrosine-protein kinase FLT3; assay: PROTAC activity at CRBN/FLT3 in human MV4-11 cells harboring FLT3-ITD mutation assessed as induction of FLT3 degradation by measuring maximal efficacy incubated for 24 hrs by immunoblotting analysis relative to control; format: cell-based
# Target sequence in this assay (P36888 27-993 limits assumed): as the sequence (P36888 27-993 limits assumed) above
# Target sequence in this assay (Q96SW2 whole entry partner): as the sequence (Q96SW2 whole entry partner) above
# MV4-11 [5] = assay: Induction of apoptosis in human MV4-11 cells assessed as late apoptotic cells at 10 nM incubated for 48 hrs by Annexin V/7-AAD staining based flow cytometric analysis relative to control; format: functional
# MV4-11 [6] = assay: Antitumor activity against human MV4-11 cells xenografted in NOD/SCID mouse assessed as reduction in tumor volume at 6 mg/kg, po administered once a day for 21 days; format: functional, organism-based; details: time 21.0 day
# MV4-11 [7] = assay: Induction of apoptosis in human MV4-11 cells assessed as early apoptotic cells at 10 nM incubated for 48 hrs by Annexin V/7-AAD staining based flow cytometric analysis relative to control; format: functional
# MV4-11 [8] = assay: Induction of cell cycle arrest at G0/G1 phase in human MV4-11 cells assessed as G2/M phase cells at 2 nM incubated for 24 hrs by PI staining based flow cytometric analysis relative to control; format: functional
# MV4-11 [9] = assay: Induction of cell cycle arrest at G0/G1 phase in human MV4-11 cells assessed as sub-G0/G1 phase cells at 2 nM incubated for 24 hrs by PI staining based flow cytometric analysis relative to control; format: functional
# MV4-11 [10] = assay: Induction of cell cycle arrest at G0/G1 phase in human MV4-11 cells assessed as G2/M phase cells at 0.4 nM incubated for 24 hrs by PI staining based flow cytometric analysis relative to control; format: functional
# MV4-11 [11] = assay: Induction of cell cycle arrest at G0/G1 phase in human MV4-11 cells assessed as sub-G0/G1 phase cells at 0.4 nM incubated for 24 hrs by PI staining based flow cytometric analysis relative to control; format: functional
# MV4-11 [12] = assay: Induction of cell cycle arrest at G0/G1 phase in human MV4-11 cells assessed as S phase cells at 0.4 nM incubated for 24 hrs by PI staining based flow cytometric analysis relative to control; format: functional
# MV4-11 [13] = assay: Induction of cell cycle arrest at G0/G1 phase in human MV4-11 cells assessed as S phase cells at 2 nM incubated for 24 hrs by PI staining based flow cytometric analysis relative to control; format: functional
# MV4-11 [14] = assay: Induction of cell cycle arrest at G0/G1 phase in human MV4-11 cells assessed as G0/G1 phase cells at 0.4 nM incubated for 24 hrs by PI staining based flow cytometric analysis relative to control; format: functional
# MV4-11 [15] = assay: Induction of cell cycle arrest at G0/G1 phase in human MV4-11 cells assessed as G0/G1 phase cells at 2 nM incubated for 24 hrs by PI staining based flow cytometric analysis relative to control; format: functional
# MV4-11 [16] = assay: Induction of apoptosis in human MV4-11 cells assessed as late apoptotic cells at 2 nM incubated for 48 hrs by Annexin V/7-AAD staining based flow cytometric analysis relative to control; format: functional
# MV4-11 [17] = assay: Induction of apoptosis in human MV4-11 cells assessed as necrotic cells at 10 nM incubated for 48 hrs by Annexin V/7-AAD staining based flow cytometric analysis relative to control; format: functional
# MV4-11 [18] = assay: Inhibition of PI3K/AKT signaling pathway in human MV4-11 cells assessed as reduction in phosphorylated AKT level at 0.08 to 50 nM incubated for 24 hrs by immunoblotting analysis; format: cell-based; details: dose 0.08-50 nM
# MV4-11 [19] = assay: Induction of apoptosis in human MV4-11 cells assessed as early apoptotic cells at 2 nM incubated for 48 hrs by Annexin V/7-AAD staining based flow cytometric analysis relative to control; format: functional
smiles,measurement,setting,value
CCc1nc(C(N)=O)c(Nc2ccc(N3CCC(N4CCN(C(=O)CCCCCCCOc5cccc6c5C(=O)N(C5CCC(=O)NC5=O)C6=O)CC4)CC3)c(OC)c2)nc1NC1CCOCC1 (configuration not stated),Activity,[1],29%
CCc1nc(C(N)=O)c(Nc2ccc(N3CCC(N4CCN(C(=O)CCCOc5ccc6c(c5)C(=O)N(C5CCC(=O)NC5=O)C6=O)CC4)CC3)c(OC)c2)nc1NC1CCOCC1 (configuration not stated),Activity,[1],0%
CCc1nc(C(N)=O)c(Nc2ccc(N3CCC(N4CCN(C(=O)CCCCCOc5ccc6c(c5)C(=O)N(C5CCC(=O)NC5=O)C6=O)CC4)CC3)c(OC)c2)nc1NC1CCOCC1 (configuration not stated),Activity,[1],32%
CCc1nc(C(N)=O)c(Nc2ccc(N3CCC(N4CCN(C(=O)CCCCCCCCCNc5ccc6c(c5)C(=O)N(C5CCC(=O)NC5=O)C6=O)CC4)CC3)c(OC)c2)nc1NC1CCOCC1 (configuration not stated),Activity,[1],0%
CCc1nc(C(N)=O)c(Nc2ccc(N3CCC(N4CCN(C(=O)CCCCCCCOc5ccc6c(c5)C(=O)N(C5CCC(=O)NC5=O)C6=O)CC4)CC3)c(OC)c2)nc1NC1CCOCC1 (configuration not stated),Activity,[1],6%
CCc1nc(C(N)=O)c(Nc2ccc(N3CCC(N4CCN(C(=O)CCCCCCCNc5ccc6c(c5)C(=O)N(C5CCC(=O)NC5=O)C6=O)CC4)CC3)c(OC)c2)nc1NC1CCOCC1 (configuration not stated),Activity,[1],40%
CCc1nc(C(N)=O)c(Nc2ccc(N3CCC(N4CCN(C(=O)COc5cccc6c5CN(C5CCC(=O)N(C)C5=O)C6=O)CC4)CC3)c(OC)c2)nc1NC1CCOCC1 (configuration not stated),IC50,MV4-11 [2],22.9 nM
same,DC50,[3],> 1000 nM
CCc1nc(C(N)=O)c(Nc2ccc(N3CCC(N4CCN(C(=O)CCCCCNc5ccc6c(c5)C(=O)N(C5CCC(=O)NC5=O)C6=O)CC4)CC3)c(OC)c2)nc1NC1CCOCC1 (configuration not stated),Activity,[1],52%
CCc1nc(C(N)=O)c(Nc2ccc(N3CCC(N4CCN(C(=O)CCCCCCCNc5cccc6c5C(=O)N(C5CCC(=O)NC5=O)C6=O)CC4)CC3)c(OC)c2)nc1NC1CCOCC1 (configuration not stated),Activity,[1],50%
CCc1nc(C(N)=O)c(Nc2ccc(N3CCC(N4CCN(C(=O)COc5cccc6c5C(=O)N(C5CCC(=O)NC5=O)C6=O)CC4)CC3)c(OC)c2)nc1NC1CCOCC1 (configuration not stated),Activity,[1],58%
same,Emax,[4],86.8%
same,DC50,[3],1.26 nM
CCc1nc(C(N)=O)c(Nc2ccc(N3CCC(N4CCN(C(=O)CCCOc5cccc6c5C(=O)N(C5CCC(=O)NC5=O)C6=O)CC4)CC3)c(OC)c2)nc1NC1CCOCC1 (configuration not stated),Activity,[1],30%
CCc1nc(C(N)=O)c(Nc2ccc(N3CCC(N4CCN(C(=O)COc5cccc6c5C(=O)N(C5CCC(=O)NC5=O)C6)CC4)CC3)c(OC)c2)nc1NC1CCOCC1 (configuration not stated),DC50,[3],1.01 nM
CCc1nc(C(N)=O)c(Nc2ccc(N3CCC(N4CCN(c5ccc6c(c5)C(=O)N(C5CCC(=O)NC5=O)C6=O)CC4)CC3)c(OC)c2)nc1NC1CCOCC1 (configuration not stated),Activity,[1],0%
CCc1nc(C(N)=O)c(Nc2ccc(N3CCC(N4CCN(C(=O)CCCCCCCCCOc5cccc6c5C(=O)N(C5CCC(=O)NC5=O)C6=O)CC4)CC3)c(OC)c2)nc1NC1CCOCC1 (configuration not stated),Activity,[1],0%
CCc1nc(C(N)=O)c(Nc2ccc(N3CCC(N4CCN(C(=O)CCCNc5cccc6c5C(=O)N(C5CCC(=O)NC5=O)C6=O)CC4)CC3)c(OC)c2)nc1NC1CCOCC1 (configuration not stated),Activity,[1],34%
CCc1nc(C(N)=O)c(Nc2ccc(N3CCC(N4CCN(C(=O)CNc5cccc6c5C(=O)N(C5CCC(=O)NC5=O)C6=O)CC4)CC3)c(OC)c2)nc1NC1CCOCC1 (configuration not stated),Activity,[1],60%
same,Emax,[4],85%
same,DC50,[3],0.98 nM
CCc1nc(C(N)=O)c(Nc2ccc(N3CCC(N4CCN(C(=O)CNc5ccc6c(c5)C(=O)N(C5CCC(=O)NC5=O)C6=O)CC4)CC3)c(OC)c2)nc1NC1CCOCC1 (configuration not stated),Activity,[1],52%
CCc1nc(C(N)=O)c(Nc2ccc(N3CCC(N4CCN(C(=O)CCCCCCCCCOc5ccc6c(c5)C(=O)N(C5CCC(=O)NC5=O)C6=O)CC4)CC3)c(OC)c2)nc1NC1CCOCC1 (configuration not stated),Activity,[1],0%
CCc1nc(C(N)=O)c(Nc2ccc(N3CCC(N4CCN(C)CC4)CC3)c(OC)c2)nc1NC1CCOCC1 [GILTERITINIB],Activity,MV4-11 [5],19.6%
same,Activity,MV4-11 [6],Active
same,Activity,MV4-11 [7],5.5%
same,Activity,MV4-11 [8],18.5%
same,Activity,MV4-11 [9],1.9%
same,Activity,MV4-11 [10],21.5%
same,Activity,MV4-11 [11],1.6%
same,Activity,MV4-11 [12],10.4%
same,Activity,MV4-11 [13],6.9%
same,Activity,MV4-11 [14],66.3%
same,Activity,MV4-11 [15],72.4%
same,Activity,MV4-11 [16],6.8%
same,IC50,MV4-11 [2],6.89 nM
same,Activity,MV4-11 [17],2.3%
same,inhibition,MV4-11 [18],inactive
same,Activity,MV4-11 [19],3%
CCc1nc(C(N)=O)c(Nc2ccc(N3CCC(N4CCN(C(=O)CCCCCCCCCNc5cccc6c5C(=O)N(C5CCC(=O)NC5=O)C6=O)CC4)CC3)c(OC)c2)nc1NC1CCOCC1 (configuration not stated),Activity,[1],0%
CCc1nc(C(N)=O)c(Nc2ccc(N3CCC(N4CCN(C(=O)COc5ccc6c(c5)C(=O)N(C5CCC(=O)NC5=O)C6=O)CC4)CC3)c(OC)c2)nc1NC1CCOCC1 (configuration not stated),Activity,[1],0%
CCc1nc(C(N)=O)c(Nc2ccc(N3CCC(N4CCN(C(=O)CCCCCNc5cccc6c5C(=O)N(C5CCC(=O)NC5=O)C6=O)CC4)CC3)c(OC)c2)nc1NC1CCOCC1 (configuration not stated),Activity,[1],66%
same,Emax,[4],77.2%
same,DC50,[3],2.26 nM
CCc1nc(C(N)=O)c(Nc2ccc(N3CCC(N4CCN(c5cccc6c5C(=O)N(C5CCC(=O)NC5=O)C6=O)CC4)CC3)c(OC)c2)nc1NC1CCOCC1 (configuration not stated),Activity,[1],0%
CCc1nc(C(N)=O)c(Nc2ccc(N3CCC(N4CCN(C(=O)CCCNc5ccc6c(c5)C(=O)N(C5CCC(=O)NC5=O)C6=O)CC4)CC3)c(OC)c2)nc1NC1CCOCC1 (configuration not stated),Activity,[1],9%
CCc1nc(C(N)=O)c(Nc2ccc(N3CCC(N4CCN(C(=O)CCCCCOc5cccc6c5C(=O)N(C5CCC(=O)NC5=O)C6=O)CC4)CC3)c(OC)c2)nc1NC1CCOCC1 (configuration not stated),Activity,[1],36%
